# Data as given in patent US20200308165A1, “Compounds as Ras Inhibitors and Use Thereof” (D.E. Shaw Research, LLC, priority 2017, published 2020).
# How the values were obtained:
# [1] = biological target: T1, Ras protein (Homo sapiens, UniProt P01116); assay: GDPx_Icagen_IC50: SOS1-mediated guanine nucleotide exchange rate of Ras (mant-GDP); type: biochemical; conditions: SOS1-initiated exchange
# From the text: (§1) In some embodiments, the IC50 assay measures the reduction effect of a given compound on the guanine nucleotide-echange rate of Ras protein in the presence of guanine nucleotide exchange protein SOS1, which is a Ras activator. In the assay GDP-loaded Ras was first prepared in a buffer containing the compound at certain concentration and fluorescent guanine nucleotide (mant-GDP (used in Icagene assay) or mant-GTP (used in other IC50 assays). The guanine nucleotide exchange was initiated by the addition of the SOS1 and its rate was reflected in the rate of fluorescence change as a function of time, which was monitored by a reader. The experiment was repeated at different compound concentrations and the IC50 of the compound was defined as the compound concentration at which half of its maximal reduction effect on the guanine nucleotide exchange rate is achieved. In other embodiments, other Ras activator proteins may be used. Non-limiting examples of other Ras activator proteins include RasGRP (Ras guanyl-releasing protein).
# Example 17. Evaluation of Biological Activities: GDPx_Icagen_ICso
# as §1, with “The IC50” for “In some embodiments, the IC50”, “guanine nucleotide-exchange” for “guanine nucleotide-echange”, “Ras is” for “Ras was”, “nucleotide (mant-GDP).” for “nucleotide (mant-GDP (used in Icagene assay) or mant-GTP (used in other IC50 assays).”, “achieved.” for “achieved. In other embodiments, other Ras activator proteins may be used. Non-limiting examples of other Ras activator proteins include RasGRP (Ras guanyl-releasing protein).”
# [2] = biological target: T2, KRAS4B (wild type) (Homo sapiens, UniProt P01116); assay: K-Ras Nucleotide Exchange Assay-384 (SOS Exchange Assay by Cytoskeleton, GTPx_Cyt_IC50); type: biochemical; conditions: 1 μM KRAS4B, 0.05 μM SOS1, 1.5 μM mant-GDP
# T2 construct: purchased Cytoskeleton CS-RS03 (K-Ras4B); CS-SOS1-A (SOS1)
# T2 sequence (P01116 1-188 isoform P01116-2): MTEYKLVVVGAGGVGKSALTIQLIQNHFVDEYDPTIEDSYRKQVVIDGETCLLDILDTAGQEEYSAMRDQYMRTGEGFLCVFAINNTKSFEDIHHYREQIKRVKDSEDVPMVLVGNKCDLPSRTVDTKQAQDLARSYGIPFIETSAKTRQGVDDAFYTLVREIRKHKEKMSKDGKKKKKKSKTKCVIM
# Description: Example 16. Evaluation of Biological Activities: K-Ras Nucleotide Exchange Assay-384 (SOS Exchange Assay by Cytoskeleton (GTPx_Cyt_IC50))
# This assay is used to evaluate inhibitors of K-ras, by monitoring the inhibition of nucleotide exchange over time, in the presence of the protein SOS.
# 384-well black, untreated plates (Corning 3820 with NBS or 3821 untreated) were used. K-Ras4B Protein was used, which is wild-type (Cytoskeleton #CS-RS03) with a concnetration of 5 mg/ml, or 200 μM. Human SOS1 Protein, Exchange Domain 564-1049 (Cytoskeleton # CS-SOS1-A) was used in a concentration of 3.03 mg/ml or 50 μM. Mant-GDP triethylammonium salt solution was purchased from Sigma (catalog No. 69244). 1M stock solution of Hepes was purchased from Sigma (catalog No. H9897). 1M stock solution of MgCl2 was purchased from Sigma (catalog No. M4880). CHAPS, 3% was purchased from Sigma (catalog No. C5070). Nonidet P40 was purchased from Sigma. KOH pellets were purchased from Sigma.
# K-ras buffer containing 40 mM Hepes, 10 mM MgCl2, 0.05% CHAPS, 0.01% NP40 with a pH 7.5 was prepared as follows: to a Buffer base containing 4 ml 1M Hepes, 1 ml MgCl2,
# 93.3 ml d-H2O, pH 7.5 (with KOH pellets), 1.7 ml 3% CHAPS was added, followed by the addition of 1 ml 1% NP40.
# Final Conditions of the method included 1 μM KRAS4B (wild type), 0.05 μM SOS1, 1.5 μM mant-GDP. Reagent Preparation included: thawing aliquots of KRAS, SOS, and mant-GDP; preparing 3x KRAS (3 uM) in assay buffer; preparing 3x SOS/mant-GDP (150 nM/4.5 uM) in assay buffer; and preparing 3x compounds in assay buffer.
# Assay Procedure (1536) used 3.3 μl, 3x Kras, 3.3 μl 3x compound with preincubate 0 hour, and […] 3x SOS/mant-GDP. A kinetic read measuring fluorescence at 360_450 was performed for 30 min at 30 second intervals.
# Reference compound SCH 54292 (reversible inhibitor) at about 100 μM was used with no preincubation. Reagents were only stable for 45 min on ice, and therefore were prepared fresh before each assay. Partial plates (up to 9 columns) were run at a time to minimize effects due to the amount of time it takes to read a whole plate. SOS/mant-GDP were added with an automated pipettor to initiate all reactions at the same time. Assay was typically performed at 0.5% solution in DMSO (compounds prepared in 1.5% DMSO initially).
# Clariostar Settings were as follows. Test Name was Kras Kinetic 360-450. Basic settings of the test included Measurement type as Fluorescence (FI), and Microplate name as Corning 3820. Plate mode settings included 61 cycles, 30 second cycle time, and 10 flashes per well. Optic settings were as follows. Excitation wavelength was 360 nm. Emission wavelength was 450 nM. Excitation bandwidth was 12 nm. Emission bandwidth was 12 nm. Dichroic filter 405 was used. D6 Well(s) was used for gain adjustment. No shaking was used. General settings were as follows. Top optic was used. Settling time was 0.1 second. Reading direction was bidirectional, horizontal left to right, and bottom to top. The target temperature was 25° C.
# [3] = biological target: GDP-loaded K-Ras (Homo sapiens, UniProt P01116); assay: Thermophoresis binding assay
# Sequence of GDP-loaded K-Ras (P01116 1-188 isoform P01116-2): as above
# Description: The thermophoresis binding assay measures the changes in the movement of KRAS along a temperature gradient as a result of compound binding. In this assay, K-Ras is fluorescently labeled and the thermophoretic movement is measured by monitoring the fluorescence distribution inside a capillary. Compounds of varies concentrations were titrated and the fluorescence distribution signal was measured after 30 seconds or until the diffusion equilibrium is stable. The apparent binding affinity Kd is calculated by fitting the normalized fluorescence distribution values along the concentration axis.
# [4] = biological target: T1, Ras protein; assay: Nucleotide exchange rate IC50 assay (SOS1, mant-GDP), Example 18; type: biochemical
# From the text: as §1, with “The IC50” for “In some embodiments, the IC50”, “guanine nucleotide-exchange” for “guanine nucleotide-echange”, “Ras is” for “Ras was”, “nucleotide (mant-GDP).” for “nucleotide (mant-GDP (used in Icagene assay) or mant-GTP (used in other IC50 assays).”, “achieved.” for “achieved. In other embodiments, other Ras activator proteins may be used. Non-limiting examples of other Ras activator proteins include RasGRP (Ras guanyl-releasing protein).”
# T1 sequence (P01116 1-188 isoform P01116-2): as above
IC50 [1] [nM],IC50 [2] [nM],Kd [3] [nM],IC50 [4] [nM],SMILES
21000,500000,,,"Cc1nnc(SCc2cc(=O)n(-c3nc4ccccc4s3)[nH]2)s1 [Compound 187, 2-(benzo[d]thiazol-2-yl)-5-(((5-methyl-1,3,4-thiadiazol-2-yl)thio)methyl)-1,2-dihydro-3H-pyrazol-3-one]"
,,520,~800,"Cc1nnc(SCc2[nH]n(-c3nc4ccccc4[nH]3)c(=O)c2C)s1 [Compound 188, 2-(1H-benzo[d]imidazol-2-yl)-4-methyl-5-(((5-methyl-1,3,4-thiadiazol-2-yl)thio)methyl)-1,2-dihydro-3H-pyrazol-3-one]"
,,413,~700,"COC(=O)c1ccc2[nH]c(-n3[nH]c(CSc4nnc(C)s4)c(C)c3=O)nc2c1 [Compound 189, methyl 2-(4-methyl-3-(((5-methyl-1,3,4-thiadiazol-2-yl)thio)methyl)-5-oxo-2,5-dihydro-1H-pyrazol-1-yl)-1H-benzo[d]imidazole-5-carboxylate]"
